# In patent US8273542B2 (priority 2005, dated 2012):
# Like-named read-outs stand apart in the source and are kept apart here.
# Tests used:
# [1] = target: T1, hT2R54 (Homo sapiens, UniProt P59534); assay type: cell-based
# T1 construct: expressed in transfected cells; host or cells: HEK293 cells stably expressing large T antigen and G16gust44; Transfection was transient for imaging
# T1 sequence (P59534 18-338): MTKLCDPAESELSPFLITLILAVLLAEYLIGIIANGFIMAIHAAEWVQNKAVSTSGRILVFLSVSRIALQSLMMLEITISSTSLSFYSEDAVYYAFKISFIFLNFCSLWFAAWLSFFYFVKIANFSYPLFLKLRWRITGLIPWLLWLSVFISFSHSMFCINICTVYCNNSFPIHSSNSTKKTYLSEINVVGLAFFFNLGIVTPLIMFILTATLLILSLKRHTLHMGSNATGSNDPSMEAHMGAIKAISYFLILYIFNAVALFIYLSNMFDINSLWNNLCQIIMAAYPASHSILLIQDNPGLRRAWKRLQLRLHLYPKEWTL
# Protocol: (§1) More particularly, the present inventors transfected HEK293 cells with a particular hT2R together with a chimeric G protein (G16 gust 44) which comprises the […] G protein sequence modified by the replacement of carboxy-44 amino acid residues with those of gustducin, and recorded responses of these cells to specific bitter ligands by calcium imaging methods.
# (§2) Activation of these receptors by ranitidine is measured in a cell-based assay detecting changes in intracellular calcium concentration. In brief, human embryonic kidney cells stably expressing the large […] and a chimeric G protein (G16gust44) are transiently transfected with the a plasmid containing a particular hT2R54 nucleic acid sequence either by Ca^2+ phosphate or lipid-based systems. Transiently transfected cells are seeded into 24 well culture plates, and functional expression allowed to proceed for a total of 48 hours. The cells are then incubated with a fluorescent dye specific for calcium (Fluo-4 or Fura-2; Molecular Probes) that provides a fast, simple and reliable fluorescence-based method for detecting changes in calcium concentration inside the cell. Addition of ranitidine to cells elicits a signaling cascade leading to the activation of PLC and a subsequent increase in intracellular calcium concentration. This increase in calcium concentration changes the fluorescence properties of the calcium dye inside the cells. These changes are monitored using fluorescence microscopy and a specific design software (Imaging Workbench, Axon).
# (§3) Transiently transfected cells are seeded into 24 well culture plates, and functional expression allowed to proceed for a total of 48 hours. The cells are then incubated with a fluorescent dye specific for calcium (Fluo-4 or Fura-2; Molecular Probes) that provides a fast, simple and reliable fluorescence-based method for detecting changes in calcium concentration inside the cell. […] This increase in calcium concentration changes the fluorescence properties of the calcium dye inside the cells. These changes are monitored using fluorescence microscopy and specific design software (Imaging Workbench, Axon).
# as §3, with “Activation of these receptors by denatonium benzoate is measured in” for “Transiently transfected cells are seeded into 24 well culture plates, and functional expression allowed to proceed for”, “cell-based assay detecting changes in intracellular calcium concentration. […]” for “total of 48 hours.”
# [2] = target: T1, hT2R54; assay: dose response, stable HEK-G16gust44 line, calcium dye, FLIPR or VIPR; assay type: cell-based; conditions: for dose response of hT2R54: stable HEK-G16gust44 line
# Protocol: (§4) A HEK-G16gust44 line stably expressing high levels of hT2R8 or hT2R54 on its cell surface is used in high throughput screening assays. In this platform, the cells are seeded into 96 well or 384 well culture plates 18-24 hours before the assay. The cells are then incubated with the fluorescent calcium sensitive dye (Molecular Devices) and are stimulated and read in a standard fluorescence intensity plate reader (FLIPR or VIPR). Using this approach we have been able to further characterize the ranitidine effect on hT2R8 and hT2R54.
# as §4, with “HEK-G16gust44 cell” for “HEK-G16gust44”, “of” for “of hT2R8 or”, “acetaminophen” for “ranitidine”, “on” for “on hT2R8 and”
# [3] = taste detection threshold; assay type: in vivo, humans
# [4] = target: T2, mT2R5 (Mus musculus, UniProt Q9JKT4); conditions: Chandrashekar et al. 2000; cited from earlier work
# T2 construct: host or cells: insect Sf9 cells
# T2 sequence (Q9JKT4 1-300): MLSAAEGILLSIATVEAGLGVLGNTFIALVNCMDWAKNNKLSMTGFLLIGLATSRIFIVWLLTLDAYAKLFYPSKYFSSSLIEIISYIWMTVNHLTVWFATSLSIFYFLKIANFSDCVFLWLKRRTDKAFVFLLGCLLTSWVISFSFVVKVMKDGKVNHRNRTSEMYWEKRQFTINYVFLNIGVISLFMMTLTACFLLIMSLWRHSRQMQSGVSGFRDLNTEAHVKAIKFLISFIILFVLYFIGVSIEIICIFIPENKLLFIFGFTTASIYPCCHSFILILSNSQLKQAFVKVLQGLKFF
# [5] = target: T3, hT2R75 (Homo sapiens, UniProt P59540); assay type: cell-based
# T3 construct: expressed in transfected cells; host or cells: HEK293 cells stably expressing large T antigen and G16gust44, transiently transfected
# T3 sequence (P59540 1-309): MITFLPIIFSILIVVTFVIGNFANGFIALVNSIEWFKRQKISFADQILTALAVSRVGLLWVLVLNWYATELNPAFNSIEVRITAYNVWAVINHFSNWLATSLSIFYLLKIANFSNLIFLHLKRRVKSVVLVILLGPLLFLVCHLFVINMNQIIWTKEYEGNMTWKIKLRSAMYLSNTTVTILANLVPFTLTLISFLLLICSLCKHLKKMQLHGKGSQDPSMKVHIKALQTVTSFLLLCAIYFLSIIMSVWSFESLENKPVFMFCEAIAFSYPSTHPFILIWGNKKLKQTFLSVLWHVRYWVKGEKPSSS
# Protocol: as §1, §2
# as §3, with “Activation of these receptors by denatonium benzoate is measured in” for “Transiently transfected cells are seeded into 24 well culture plates, and functional expression allowed to proceed for”, “cell-based assay detecting changes in intracellular calcium concentration. […]” for “total of 48 hours.”
# (§5) Activation of these receptors by strychnine is measured in a cell-based assay detecting changes in intracellular calcium concentration. […] The cells are then incubated with a fluorescent dye specific for calcium (Fluo-4 or Fura-2; Molecular Probes) that provides a fast, simple and reliable fluorescence-based method for detecting changes in calcium concentration inside the cell. […] This increase in calcium concentration changes the fluorescence properties of the calcium dye inside the cells. These changes are monitored using fluorescence microscopy and a specific design software (Imaging Workbench, Axon).
# [6] = target: T4, hT2R8 (Homo sapiens, UniProt Q9NYW2); assay type: cell-based
# T4 construct: expressed in transfected cells; host or cells: HEK293 cells stably expressing large T antigen and chimeric G protein G16gust44; Transfection was transient for imaging
# T4 sequence (Q9NYW2 1-309): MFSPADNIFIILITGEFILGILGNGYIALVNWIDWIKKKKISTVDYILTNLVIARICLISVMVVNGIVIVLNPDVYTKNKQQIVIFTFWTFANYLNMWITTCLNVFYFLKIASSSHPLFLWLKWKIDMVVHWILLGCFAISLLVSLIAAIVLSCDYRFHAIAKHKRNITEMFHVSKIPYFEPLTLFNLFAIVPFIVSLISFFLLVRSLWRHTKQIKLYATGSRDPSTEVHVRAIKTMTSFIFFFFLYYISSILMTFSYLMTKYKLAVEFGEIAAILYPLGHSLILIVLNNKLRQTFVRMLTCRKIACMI
# Protocol: as §1, §2
# as §5, with “denatonium benzoate” for “strychnine”, “and” for “and a”
# as §5
# [7] = target: T5, hT2R10 (Homo sapiens, UniProt Q9NYW0); assay type: cell-based; conditions: concentration not given
# T5 construct: expressed in transfected cells; host or cells: HEK293 cells stably expressing large T antigen and G16gust44, transiently transfected
# T5 sequence (Q9NYW0 1-307): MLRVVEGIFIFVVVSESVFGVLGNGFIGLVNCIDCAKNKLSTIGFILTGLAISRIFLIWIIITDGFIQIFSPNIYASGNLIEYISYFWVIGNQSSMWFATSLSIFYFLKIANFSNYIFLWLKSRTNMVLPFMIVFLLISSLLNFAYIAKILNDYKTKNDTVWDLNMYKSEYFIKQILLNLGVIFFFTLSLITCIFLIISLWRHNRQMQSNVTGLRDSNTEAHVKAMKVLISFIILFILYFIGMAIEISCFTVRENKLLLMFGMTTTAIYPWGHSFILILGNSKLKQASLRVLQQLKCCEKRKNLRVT
# Protocol: as §1
# as §5, with “denatonium benzoate” for “strychnine”, “and” for “and a”
# Activation of these receptors by strychnine is measured in a cell-based assay detecting changes in intracellular calcium concentration. […] The cells are then incubated with a fluorescent dye specific for calcium (Fluo-4 or Fura-2; Molecular Probes) that provides a fast, simple and reliable fluorescence-based method for detecting changes in calcium concentration inside the cell. […]
# [8] = target: T6, hT2R13 (Homo sapiens, UniProt Q9NYV9); assay type: cell-based; conditions: concentration not given
# T6 construct: expressed in transfected cells; host or cells: HEK293 cells stably expressing large T antigen and G16gust44, transiently transfected
# T6 sequence (Q9NYV9 1-303): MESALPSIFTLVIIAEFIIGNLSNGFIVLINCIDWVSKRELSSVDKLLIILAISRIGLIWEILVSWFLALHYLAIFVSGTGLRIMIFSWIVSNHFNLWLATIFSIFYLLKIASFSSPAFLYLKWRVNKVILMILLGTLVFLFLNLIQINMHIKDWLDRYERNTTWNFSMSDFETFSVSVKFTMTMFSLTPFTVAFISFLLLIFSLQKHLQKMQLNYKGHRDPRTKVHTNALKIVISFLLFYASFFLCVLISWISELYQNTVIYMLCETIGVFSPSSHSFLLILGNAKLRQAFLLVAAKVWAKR
# Protocol: as §1
# as §2, with “receptors by denatonium benzoate is measured” for “receptors by ranitidine is measured”, “a particular hT2R nucleic acid” for “a particular hT2R54 nucleic acid”, “the cell. […] This increase” for “the cell. Addition of ranitidine to cells elicits a signaling cascade leading to the activation of PLC and a subsequent increase in intracellular calcium concentration. This increase”, “microscopy and specific design” for “microscopy and a specific design”
# [9] = target: T7, hT2R61 (Homo sapiens, UniProt P59537, H212R/W35S); assay type: cell-based; conditions: concentration not given
# T7 construct: expressed in transfected cells; host or cells: HEK293 cells stably expressing large T antigen and G16gust44, transiently transfected
# T7 sequence (P59537 1-309 W35S/H212R): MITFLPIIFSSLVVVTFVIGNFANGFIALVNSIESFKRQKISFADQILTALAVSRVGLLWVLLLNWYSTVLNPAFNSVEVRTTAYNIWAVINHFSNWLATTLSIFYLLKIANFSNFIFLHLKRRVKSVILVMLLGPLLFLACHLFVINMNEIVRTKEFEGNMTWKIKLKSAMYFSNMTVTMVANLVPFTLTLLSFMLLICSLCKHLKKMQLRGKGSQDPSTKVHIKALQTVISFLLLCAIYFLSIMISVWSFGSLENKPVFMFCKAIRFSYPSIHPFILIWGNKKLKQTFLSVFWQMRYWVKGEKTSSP
# Protocol: as §1
# as §2, with “receptors by denatonium benzoate is measured” for “receptors by ranitidine is measured”, “a particular hT2R nucleic acid” for “a particular hT2R54 nucleic acid”, “the cell. […] This increase” for “the cell. Addition of ranitidine to cells elicits a signaling cascade leading to the activation of PLC and a subsequent increase in intracellular calcium concentration. This increase”, “microscopy and specific design” for “microscopy and a specific design”
# [10] = target: T4, hT2R8; assay: dose response, stable HEK-G16gust44 line, calcium dye, FLIPR or VIPR; assay type: cell-based
# Protocol: as §4
# as §4, with “[…]” for “or hT2R54”, “VIPR).” for “VIPR). Using this approach we have been able to further characterize the ranitidine effect on hT2R8 and hT2R54.”
# [11] = target: T8, hT2R4 (Homo sapiens, UniProt Q9NYW5); conditions: Chandrashekar et al. 2000; cited from earlier work
# T8 sequence (Q9NYW5 1-299): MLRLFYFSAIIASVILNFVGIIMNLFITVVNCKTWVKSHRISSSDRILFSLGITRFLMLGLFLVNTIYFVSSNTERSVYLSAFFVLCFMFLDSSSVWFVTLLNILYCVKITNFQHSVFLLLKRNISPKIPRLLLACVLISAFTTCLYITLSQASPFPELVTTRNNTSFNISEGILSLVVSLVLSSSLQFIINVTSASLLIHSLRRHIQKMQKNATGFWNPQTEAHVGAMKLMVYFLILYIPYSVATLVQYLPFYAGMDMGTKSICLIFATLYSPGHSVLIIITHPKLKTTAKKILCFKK
structure (smiles),measurement,setting,value
CC(=O)Nc1ccc(O)cc1 [acetaminophen],response of hT2R54 in calcium imaging,[1]; 10 μM,responded specifically
same,EC50,[2],1830 nM
same,dose response of hT2R54,[2],typical dose-response relationship
same,taste detection threshold / bitter taste threshold for humans,[3],1.25 µM
C[C@@H]1C[C@@H]([C@H](O)CC2CC(=O)NC(=O)C2)C(=O)[C@@H](C)C1 [cycloheximide],gustducin activation by mT2R5,[4],occurs only in response to cycloheximide
CC[N+](CC)(CC(=O)Nc1c(C)cccc1C)Cc1ccccc1 [denatonium benzoate],response of hT2R75 in calcium imaging,[5]; concentration not given,respond specifically
same,response of hT2R8 in calcium imaging,[6]; concentration not given,respond specifically
same,response of hT2R10 in calcium imaging,[7],respond specifically
same,response of hT2R54 in calcium imaging,[1]; concentration not given,respond specifically
same,response of hT2R13 in calcium imaging,[8],respond specifically
same,response of hT2R61 in calcium imaging,[9],respond specifically
same,EC50,"[10]; dose response, FIG. 6",450000 nM
same,dose response of hT2R8,[10]; stable HEK-G16gust44 line,typical dose-response relationship
same,EC50,"[2]; dose response, FIG. 4, read-out: EC50, hT2R54",380 nM
same,dose response of hT2R54,[2],typical dose-response relationship
same,taste detection threshold,[3]; in vivo,24 mM
same,effective denatonium concentrations activating hT2R4,[11],1.5 mM
CNC(=C[N+](=O)[O-])NCCSCc1ccc(CN(C)C)o1 [ranitidine],taste detection threshold / bitter taste threshold for humans,[3],78 µM
OCc1ccccc1O[C@@H]1O[C@H](CO)[C@@H](O)[C@H](O)[C@H]1O [salicin],response of hT2R54 in calcium imaging,[1]; 10 μM,does not respond
OC[C@H]1O[C@@](CO)(O[C@H]2O[C@H](CO)[C@@H](O)[C@H](O)[C@H]2O)[C@@H](O)[C@@H]1O [sucrose],response of hT2R75 in calcium imaging,[5]; 10 μM,did not respond
same,response of hT2R8 in calcium imaging,[6]; 10 μM,did not respond
same,response of hT2R54 in calcium imaging,[1]; 10 μM,did not respond
